Data on five molecules can be found in article PMC9765437, “Antibiotic Acyldepsipeptides Stimulate the Streptomyces Clp-ATPase/ClpP Complex for Accelerated Proteolysis” (mBio, 2022).

Starred links: 1 amine or outer side, 2 acyl side, 3 side chain; linkers in the order of their positions; H or OH if unused. Positions of bridges follow the written chain, without caps; N, C: chain ends. Non-standard residues stand in square brackets, D forms with d. Residues, ends and D or L forms follow the SMILES beside them. *: point of attachment. Octatrienoyl(2E,4E,6E) = C/C=C/C=C/C=C/C(=O)*; Pro(4R-Me) = C[C@H]1CN[C@H](C(=O)O)C1; AMC = Cc1cc(=O)oc2cc(N*)ccc12; Suc = O=C(CCC(=O)[*:2])[*:1]; NMeA = CN[C@@H](C)C(=O)O

In one data set the target is T1, ClpP1 (Streptomyces hawaiiensis, UniProt A0A6G5RDH7).
T1 construct: gene clpP; full-length unprocessed, untagged, expressed in E. coli SG1146a (clpP deletion), anion exchange; ADEP-induced processing between G24 and P25
T1 sequence (A0A6G5RDH7 1-219): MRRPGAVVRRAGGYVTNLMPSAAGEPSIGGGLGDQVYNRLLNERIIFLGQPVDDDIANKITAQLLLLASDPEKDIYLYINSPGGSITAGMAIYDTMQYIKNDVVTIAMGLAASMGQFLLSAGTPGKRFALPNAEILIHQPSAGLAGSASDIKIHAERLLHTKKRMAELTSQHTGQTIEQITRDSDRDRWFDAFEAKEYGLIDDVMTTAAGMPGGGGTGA
The data set can be described thus: fluorogenic peptidase assay. In kind it is biochemical. The note with it: with ADEP1 as activator; 100 μM substrate, pH 7.5, 30°C.

In another data set the target is T2, ClpC1 (Streptomyces hawaiiensis, UniProt A0A6G5RIJ6).
T2 construct: gene CEB94_23085
The settings on record: 100 nM ATP, beta-casein, 30°C; ClpC1 alone and with ClpP1P2; unaffected by ADEP1.

A further data set has as its target T3, ClpP1P2 (Streptomyces hawaiiensis, UniProt A0A6G5RDH7).
T3 construct: gene clpP; untagged full-length ClpP1 mixed with C-terminally His6-tagged full-length ClpP2, expressed in E. coli SG1146a; heterotetradecamer of two homoheptameric rings; with ATP-dependent Clp protease proteolytic subunit 2
The data set can be described thus: peptidase activation assay, Suc-LY-AMC. Format: biochemical. The settings on record: activator binding via ClpP1; 10 μM ADEP1, 4 μM total ClpP, pH 7.5, 30°C.

Data set [1] concerns the molecule itself. The data set can be described thus: native gel or EMSA; native PAGE without cross-linker, with ADEP1: ClpP1 and ClpP2 (10 μM each) with 60 μM or 25 μM ADEP1 (ClpP:ADEP1 1:3 or 1:1.25), 3 h at 30°C; immunoblot with anti-ClpP1 or anti-6His. (In general: A gel shift assay detects complexes by their altered migration in electrophoresis.)
Data set [2] deals with the molecule itself. The data set can be described thus: SEC; Superdex 200 Increase 10/300 GL; 80 μM protein, DMSO (no ADEP1), 30 min at 30°C; buffer GF (50 mM HEPES-KOH, 150 mM KCl, 20 mM MgCl2, 10% glycerol, 1 mM DTT, pH 7.5). For orientation: Size exclusion chromatography separates by hydrodynamic size, large species first.

T2 sequence (A0A6G5RIJ6 1-841): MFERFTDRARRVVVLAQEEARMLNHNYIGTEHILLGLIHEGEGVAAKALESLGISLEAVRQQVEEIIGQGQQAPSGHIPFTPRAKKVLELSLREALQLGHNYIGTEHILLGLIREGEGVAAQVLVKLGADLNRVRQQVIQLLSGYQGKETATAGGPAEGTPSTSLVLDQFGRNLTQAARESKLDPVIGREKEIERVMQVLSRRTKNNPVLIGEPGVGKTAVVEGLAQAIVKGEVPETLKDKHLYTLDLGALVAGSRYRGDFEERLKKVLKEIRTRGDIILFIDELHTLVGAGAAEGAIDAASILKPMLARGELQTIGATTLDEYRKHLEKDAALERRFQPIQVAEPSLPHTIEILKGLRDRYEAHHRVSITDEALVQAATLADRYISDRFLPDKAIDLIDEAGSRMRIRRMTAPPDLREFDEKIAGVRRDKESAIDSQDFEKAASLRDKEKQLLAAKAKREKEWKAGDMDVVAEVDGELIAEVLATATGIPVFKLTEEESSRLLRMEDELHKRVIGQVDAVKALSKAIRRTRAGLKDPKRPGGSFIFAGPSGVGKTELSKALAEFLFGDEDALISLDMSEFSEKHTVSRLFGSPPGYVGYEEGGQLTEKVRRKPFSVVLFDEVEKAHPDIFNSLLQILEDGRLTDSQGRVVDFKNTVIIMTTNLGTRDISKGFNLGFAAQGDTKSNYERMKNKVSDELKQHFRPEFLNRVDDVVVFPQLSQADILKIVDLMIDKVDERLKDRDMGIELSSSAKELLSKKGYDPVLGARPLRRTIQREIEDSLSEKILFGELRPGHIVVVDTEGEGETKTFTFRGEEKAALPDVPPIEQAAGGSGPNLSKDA

As for `Cc1cc(=O)oc2cc(NC(=O)[C@H](Cc3ccc(O)cc3)NC(=O)[C@H](CC(C)C)NC(=O)CCC(=O)O)ccc12` [Suc-LY-AMC] (Suc-Leu-Tyr-{AMC}), the fluorogenic peptidase assay entry on ClpP1 is recorded as “ADEP1 clearly induced the hydrolysis of Suc-LY-AMC by either ClpP1 alone”.
For the molecule `Nc1ncnc2c1ncn2[C@@H]1O[C@H](COP(=O)(O)OP(=O)(O)OP(=O)(O)O)[C@@H](O)[C@H]1O` [ATP], the “ADP-Glo ATP turnover assay” value on ClpC1 is given as “directly measured the turnover of ATP to ADP by ClpC1 in casein degradation assays”.
As for `C/C=C/C=C/C=C/C(=O)N[C@@H](Cc1ccccc1)C(=O)N[C@H]1COC(=O)[C@@H]2C[C@@H](C)CN2C(=O)[C@H](C)NC(=O)[C@H](C)N(C)C(=O)[C@@H]2CCCN2C1=O` [ADEP1] ({Octatrienoyl(2E,4E,6E)}-FSP[NMeA]A[Pro(4R-Me)]; ester 2-C), at ClpP1P2, the “peptidase activation assay, Suc-LY-AMC” value is given as “ADEP1 clearly induced the hydrolysis of Suc-LY-AMC by either ClpP1 alone or by the mixed complex”.

B1: ClpP2 of Streptomyces hawaiiensis NRRL 15010, C-terminally His6-tagged (enzyme, UniProt A0A5B9BIX9 1-235, looked up)
chain: MNQFPGSGIYDRMHAVQDMSASQGRYTGPQAESRYIIPRFVERTSQGIREYDPYAKLFEERVIFLGVQIDDASANDVMAQLLCLESMDPDRDISVYINSPGGSFTALTAIYDTMQYVKPDVQTVCMGQAASAAAVLLAAGTPGKRMALPNARVLIHQPYSETGRGQVSDLEIAANEILRMRSQLEDMLAKHSTTPVEKIREDIERDKILTAEDALSYGLIDQVISTRKMDNSSLR
notes: ClpP2, Clp protease proteolytic subunit 2 of Streptomyces hawaiiensis NRRL 15010, orf CEB94_14105 of GenBank CP021978.1; from the first start codon, unprocessed; also called ClpP2-His6; ClpP2His; source: E. coli SG1146a (ΔclpP), purified (Ni-NTA); also co-expressed with ClpP1 from pETDUET-1, in lysate; not shown: His6, C-terminal, kept
For orientation: stoichiometry N means a count of units in the complex or per binding partner. B1: the “stoichiometry N” value in data set [1] was found to be 7.

B2: ClpP2 of Streptomyces hawaiiensis NRRL 15010, untagged (enzyme, UniProt A0A5B9BIX9 1-235, looked up)
chain: B1 chain
notes: ClpP2 of Streptomyces hawaiiensis NRRL 15010, orf CEB94_14105 of GenBank CP021978.1; unprocessed; calculated mass of the heptamer 182.2 kDa; also called native ClpP2; source: E. coli SG1146a (ΔclpP), purified (anion-exchange chromatography)
On to B2, for which the “stoichiometry N” value in data set [2] was 7.
